Legend:
[1] = test system: α-Glucosidase from Saccharomyces cerevisiae; test: α-glucosidase inhibition assay (pNPG substrate); type: biochemical; conditions: for % inhibition R1: replicate 1; for % inhibition R3: replicate 3; for IC50: dose-response, mean ± SD; for % Inhibition: fixed concentration of 100 µM, mean of triplicate (± SD); for Observation (activity level, Table S9) / Observation (inhibition level, Table S7): words, based on % inhibition at 100 µM
Method: The α-glucosidase inhibitory activity of 4a–j was evaluated using a standard enzymatic assay. α-Glucosidase from Saccharomyces cerevisiae was employed as the enzyme source, and p-nitrophenyl-α-D-glucopyranoside (pNPG) served as the substrate. The assay was conducted in a 96-well microplate format at 37 °C in 50 mM phosphate buffer (pH 6.8). Briefly, 10 µL of the test compound (dissolved in DMSO) at various concentrations was mixed with 20 µL of the enzyme solution (1 U/mL) and 50 µL of phosphate buffer. The reaction was initiated by adding 20 µL of pNPG (5 mM), and the mixture was incubated for 30 min. The reaction was terminated by adding 50 µL of 0.1 M Na2CO3, and the absorbance of the released p-nitrophenol was measured at […] using a microplate reader. […] All experiments were performed in triplicate, and the results were expressed as mean ± standard deviation (SD). Statistical significance was evaluated using one-way ANOVA followed by Tukey’s post hoc test.

[2] = molecular target: α-glucosidase; design: method as in PMID 26398141; conditions: cited from earlier work

| Structure (SMILES) | % inhibition R1 ([1]; 100 µM) [%] | % inhibition R3 ([1]; 100 µM) [%] | IC50 [1] [µM] | % Inhibition [1] [%] | Observation (activity level, Table S9) [1] | Observation (inhibition level, Table S7) [1] | % Inhibition ([1]; 100 µM) [%] | IC50 [2] [µM] |
| --- | --- | --- | --- | --- | --- | --- | --- | --- |
| COc1ccc(/C=N/NC(=O)c2cc3cc(OC)ccc3[nH]2)c(O)c1 [4e, (E)-N’-(2-Hydroxy-4-methoxybenzylidene)-5-methoxy-1H-indole-2-carbohydrazide] | 87.826 | 81.926 | 16.42 ± 0.08 | 82.21 ± 4.47 | High activity | Good inhibition | – | – |
| COc1ccc2[nH]c(C(=O)N/N=C/c3cccnc3)cc2c1 [4b, (E)-5-Methoxy-N’-(pyridin-3-ylmethylene)-1H-indole-2-carbohydrazide] | 34.129 | 27.265 | – | – | Low activity | Low inhibition | 25.37 | – |
| O=C(N/N=C/c1cc(O)c(O)c(O)c1)c1cc2ccccc2[nH]1 [(E)-N’-(3,4,5-Trihydroxybenzylidene)-1H-indole-2-carbohydrazide] | – | – | – | – | – | – | – | 2.3 |
| C[C@H]1O[C@H](O[C@H]2[C@H](O)[C@@H](O)[C@@H](O[C@H]3[C@H](O)[C@@H](O)C(O)O[C@@H]3CO)O[C@@H]2CO)[C@H](O)[C@@H](O)[C@@H]1N[C@H]1C=C(CO)[C@@H](O)[C@H](O)[C@H]1O (stereo partly shown) [Acarbose, acarbose, reference compound] | 84.457 | 85.609 | – | 84.66 ± 0.71 | – | – | – | – |
| COc1ccc2[nH]c(C(=O)N/N=C/c3cccc(Br)c3)cc2c1 [4g, (E)-N’-(3-Bromobenzylidene)-5-methoxy-1H-indole-2-carbohydrazide] | 92.817 | 90.041 | 10.89 ± 0.08 | 91.06 ± 1.25 | High activity | High inhibition | – | – |
| COc1ccc2[nH]c(C(=O)N/N=C/c3ccccc3F)cc2c1 [4f, (E)-N’-(2-Fluorobenzylidene)-5-methoxy-1H-indole-2-carbohydrazide] | 54.885 | 51.513 | – | 50.65 ± 3.86 | Moderate activity | Moderate inhibition | – | – |
| COc1ccc2[nH]c(C(=O)N/N=C/c3nccs3)cc2c1 [4a, (E)-5-Methoxy-N’-(thiazol-2-ylmethylene)-1H-indole-2-carbohydrazide] | 41.141 | 33.393 | – | 31.75 ± 8.42 | Low activity | Low inhibition | – | – |
| COc1ccc2[nH]c(C(=O)N/N=C/c3ccc4ccccc4c3)cc2c1 [4i, (E)-5-Methoxy-N’-(naphthalen-2-ylmethylene)-1H-indole-2-carbohydrazide] | 84.106 | 84.052 | 19.5 ± 1.37 | 82.73 ± 1.90 | High activity | Good inhibition | – | – |
| COc1ccc2[nH]c(C(=O)N/N=C/c3ccc(O)cc3)cc2c1 [4c, (E)-N’-(4-Hydroxybenzylidene)-5-methoxy-1H-indole-2-carbohydrazide] | 39.907 | 37.768 | – | 32.51 ± 8.99 | Moderate activity | Moderate inhibition | – | – |
| COc1ccc2[nH]c(C(=O)N/N=C/c3ccc(O)c([N+](=O)[O-])c3)cc2c1 [4d, (E)-N’-(4-Hydroxy-3-nitrobenzylidene)-5-methoxy-1H-indole-2-carbohydrazide] | 37.425 | 28.540 | – | 27.97 ± 7.96 | Low activity | Low inhibition | – | – |
| COc1ccc2[nH]c(C(=O)N/N=C/c3ccc([N+](=O)[O-])cc3)cc2c1 [4h, (E)-5-Methoxy-N’-(4-nitrobenzylidene)-1H-indole-2-carbohydrazide] | 90.888 | 88.949 | 14.5 ± 0.76 | 89.11 ± 1.39 | High activity | High inhibition | – | – |
| COc1ccc2[nH]c(C(=O)N/N=C/c3ccccc3)cc2c1 [4j, (E)-N’-Benzylidene-5-methoxy-1H-indole-2-carbohydrazide] | 56.471 | 49.039 | – | 53.23 ± 3.11 | Moderate activity | Moderate inhibition | – | – |
